Measurements: ChEMBL document CHEMBL5154921, “Discovery and Characterization of the First Nonpeptide Antagonists for the Relaxin-3/RXFP3 System” (J Med Chem, 2022)
The source made the active and inactive calls. The rule behind the calls is not given here.

Experiments:
Type in all cases: functional, cell-based
Relaxin-3 receptor 1 [1] = molecular target: T1, Relaxin-3 receptor 1 (Homo sapiens, UniProt Q9NSD7); assay: Antagonist activity at human RXFP3 expressed in CHO-K1 cells assessed as forskolin-induced cAMP accumulation measured after 30 mins in presence of relaxin-3 by TR-FRET assay
T1 sequence (Q9NSD7 whole entry): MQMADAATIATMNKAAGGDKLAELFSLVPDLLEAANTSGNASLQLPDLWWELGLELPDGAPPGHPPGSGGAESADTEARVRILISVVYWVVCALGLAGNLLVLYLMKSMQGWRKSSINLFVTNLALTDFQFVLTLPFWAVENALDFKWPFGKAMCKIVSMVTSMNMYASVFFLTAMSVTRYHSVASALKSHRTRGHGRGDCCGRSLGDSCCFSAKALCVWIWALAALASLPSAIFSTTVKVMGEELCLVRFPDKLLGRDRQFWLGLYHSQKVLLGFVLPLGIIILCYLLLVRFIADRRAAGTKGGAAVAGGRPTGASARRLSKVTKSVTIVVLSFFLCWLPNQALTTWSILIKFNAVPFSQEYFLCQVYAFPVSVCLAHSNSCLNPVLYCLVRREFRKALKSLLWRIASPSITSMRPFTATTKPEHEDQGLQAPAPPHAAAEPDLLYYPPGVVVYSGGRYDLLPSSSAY

Relaxin-3 receptor 1 [2] = molecular target: T1, Relaxin-3 receptor 1; assay: Antagonist activity at human RXFP3 expressed in CHO-K1 cells assessed as [35S]GTPgammaS binding incubated for 1 hr by [35S]GTP-gammaS binding assay
[3] = molecular target: Relaxin receptor 1 (Homo sapiens) (UniProt Q9HBX9); assay: Antagonist activity at human RXFP1 receptor expressed in CHO-K1 cells assessed as cAMP production at 10 to 30 uM in presence of relaxin-3 incubated for 30 mins by TR-FRET assay; settings: filed as antagonist, dose 10-30 µM
Sequence of Relaxin receptor 1 (Homo sapiens) (Q9HBX9 whole entry): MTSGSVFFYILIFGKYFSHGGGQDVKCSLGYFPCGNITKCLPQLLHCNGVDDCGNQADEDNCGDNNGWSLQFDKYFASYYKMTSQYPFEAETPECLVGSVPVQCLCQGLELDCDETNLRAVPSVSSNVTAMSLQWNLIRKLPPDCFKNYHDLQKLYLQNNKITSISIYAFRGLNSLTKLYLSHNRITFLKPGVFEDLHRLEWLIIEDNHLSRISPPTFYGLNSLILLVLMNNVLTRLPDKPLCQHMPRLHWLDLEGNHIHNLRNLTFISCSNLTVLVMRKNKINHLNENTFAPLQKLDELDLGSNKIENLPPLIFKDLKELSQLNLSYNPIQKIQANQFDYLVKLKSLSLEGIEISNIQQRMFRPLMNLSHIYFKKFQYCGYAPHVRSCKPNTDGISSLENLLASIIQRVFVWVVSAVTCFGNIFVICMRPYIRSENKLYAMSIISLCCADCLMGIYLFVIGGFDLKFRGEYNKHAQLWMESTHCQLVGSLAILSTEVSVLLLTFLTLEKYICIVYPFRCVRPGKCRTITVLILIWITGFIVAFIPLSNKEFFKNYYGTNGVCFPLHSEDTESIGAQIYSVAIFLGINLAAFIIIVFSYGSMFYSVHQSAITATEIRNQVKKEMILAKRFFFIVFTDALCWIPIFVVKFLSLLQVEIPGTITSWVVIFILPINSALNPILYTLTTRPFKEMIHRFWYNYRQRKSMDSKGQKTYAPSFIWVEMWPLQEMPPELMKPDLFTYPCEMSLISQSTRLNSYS

| IC50 (Relaxin-3 receptor 1 [1]) [µM] | IC50 (Relaxin-3 receptor 1 [2]) [µM] | Activity [3] | Structure (SMILES) |
| --- | --- | --- | --- |
| > 10 | – | – | Cc1ccc(-c2noc(-c3ccc(NC(=O)C4CC(=O)N(CCc5ccccc5)C4)cc3)n2)cc1 (stereo not given) |
| – | 3.04 | Active | O=C(Nc1ccc(-c2nc(-c3ccc(Cl)cc3)no2)cc1)C1CC(=O)N(Cc2cccnc2)C1 (stereo not given) |
| 2.12 | – | – | Cc1ccc(-c2noc(-c3ccc(NC(=O)C4CC(=O)N(Cc5cccnc5)C4)cc3)n2)cc1 (stereo not given) |
| > 10 | – | – | Cc1ccc(-c2noc(-c3ccc(NC(=O)C4CC(=O)N(Cc5cccc(F)c5)C4)cc3)n2)cc1 (stereo not given) |
